Test results published in patent US20260325538A1, “THERAPY” (priority 2023, published 2026).

Test system: Klebsiella pneumoniae ST147 (NDM-1 and KPC-2)
Assay: Checkerboard MIC, fixed ratio of sBLI to antibiotic (Examples 7-10)
Type: cell-based
Conditions: caMHB 29.4 μM Zn2+
Text: The antibiotics and serine β-lactamase-inhibitors (sBLIs) were purchased from the following suppliers: Ceftazidime (CAZ): Sigma-Aldrich; Cefepime (FEP): Sigma-Aldrich; Cefpodoxime (CEFP): MedChemExpress; Sulbactam (SUL): Sigma-Aldrich Avibactam (AVI): Biosynth; Vaborbactam (VAB): ABCR; Tazobactam (TAZ): Sigma-Aldrich; Taniborbactam (TAN): Sigma-Aldrich.
In each of Examples 3-23, the compound of Example 26 of WO 2018/033719 was employed as the zinc chelator. The following abbreviations are used in these examples: sBLI means serine-β-lactamase inhibitor; CFU means colony-forming unit, which is a group of microbes that grows from a single cell on a petri plate; DMSO means dimethyl sulfoxide; MHB means Mueller-Hinton broth; caMHB means cation-adjusted Mueller-Hinton broth; MIC means minimum inhibitory concentration—the lower the MIC, the more efficient the combination against the respective bacterial strain.
General Protocol Used in Examples 3-10 Employing a Fixed Ratio of sBLI to Antibiotic within Each Experiment:
Antimicrobial susceptibility testing (AST) by broth microdilution (MIC determination) was performed according to The European Committee on Antimicrobial Susceptibility Testing (EUCAST) guidelines (see Reading guide for broth microdilution Version 5.0, 2024: https://www.eucast.org).
Sterile clear round bottom polystyrene (non-treated) 96-well microplates (Corning 3788) were used for making serial two-fold dilutions of the antibiotic and the serine sBLI in cation-adjusted Mueller Hinton II broth (caMHB; Thermo Scientific, T3462, containing 29.4 μM Zn^2+), across the columns of the microtiter plate ([…]; columns 1-12). The checkerboard plates were all made by keeping the sBLI at a fixed ratio relative to antibiotic (absolute concentrations of each, in μg/mL) to all wells containing sample in each plate. Additionally, a set of samples were included in each test plate, where the zinc chelator was added, at various fixed concentrations, of 16 μg/mL, 8 μg/mL and/or 4 μg/mL (as specified in each Example). All sample wells contained growth medium (caMHB), and inoculated bacteria at a final inoculum between 3-7×10^5 CFU/mL. […] Synergy for the triple combination (antibiotic, sBLI, and zinc chelator) was defined as when the MIC in rows containing the zinc chelator in combination with antibiotic and sBLI (triple combination), was lower than for rows containing antibiotic and sBLI (double combination; no zinc chelator).
(§1) Two technical replicates were performed for each sample. An X in rows 1-8 in the table indicates bacterial growth, while a blank cell indicates no growth. Concentrations (μg/mL) of CAZ are given in row 0a). Concentrations (μg/mL) of AVI are given in row 0b. The zinc chelator was added in fixed concentrations, at 16 μg/mL in rows 3 and 4, at 8 μg/mL in rows 5 and 6, and 4 μg/mL in rows 7 and 8. As a control, the effect of CAZ and AVI (no zinc chelator) was tested (rows 1 and 2). All wells contained bacterial growth medium (caMHB, 29.4 μM Zn^2+) and were inoculated with the test bacterium. The grey cells indicate the CAZ MIC.
as §1, with “FEP” for “CAZ”, “0a.” for “0a).”
Two technical replicates were performed for each sample. An X in rows 1-8 in the table indicates bacterial growth, while a blank cell indicates no growth. Concentrations (μg/mL) of FEP are given in row 0a. Concentrations (μg/mL) of SUL are given in row 0b. […]

Measured: synergy with the zinc chelator

CN(C[C@H](O)[C@@H](O)[C@H](O)[C@H](O)CO)C(=O)c1ccc(CN(Cc2ccccn2)Cc2ccccn2)nc1 [zinc chelator]
Synergy: zinc chelator 4 μg/mL, with FEP and TAZ (fixed ratio) | zinc chelator 8 μg/mL, with CAZ and AVI (fixed ratio) | zinc chelator 8 μg/mL, with FEP and AVI (fixed ratio) | zinc chelator 8 μg/mL, with FEP and SUL (fixed ratio) | zinc chelator 8 μg/mL, with FEP and TAZ (fixed ratio) | zinc chelator 16 μg/mL, with CAZ and AVI (fixed ratio) | zinc chelator 16 μg/mL, with FEP and AVI (fixed ratio) | zinc chelator 16 μg/mL, with FEP and SUL (fixed ratio) | zinc chelator 16 μg/mL, with FEP and TAZ (fixed ratio)
